Measurements from patent US12077503B2, “Substituted cyclic amides and their use as herbicides” (FMC CORPORATION, priority 2015, dated 2024).
Where two headings read alike, the source gives them in different places.

Key:
Experiment in all cases: Test A preemergence
Format in all cases: in vivo
[1] = system: barnyardgrass (Echinochloa crus-galli); settings: Echinochloa crus-galli, pre-emergence, 240 h; for pest or weed control at 125 g/ha: 125 g ai/ha; for pest or weed control at 500 g/ha: 500 g ai/ha
Method in brief: (§1)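 Preemergence directed soil spray on seeded pots, or postemergence application to plants 2–10 cm, one- to two-leaf. Solvent mixture non-phytotoxic, with surfactant. Scored ~10 d later, visually, 0–100 vs untreated.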

[2] = system: ryegrass, Italian (Italian ryegrass, Lolium multiflorum); settings: Lolium multiflorum, pre-emergence, 240 h; for pest or weed control at 125 g/ha: 125 g ai/ha; for pest or weed control at 500 g/ha: 500 g ai/ha
Method in brief: as §1

[3] = system: giant foxtail (Setaria faberii); settings: Setaria faberi, pre-emergence, 240 h; for pest or weed control at 125 g/ha: 125 g ai/ha; for pest or weed control at 500 g/ha: 500 g ai/ha
Method in brief: as §1

[4] = system: pigweed (Amaranthus retroflexus); settings: Amaranthus retroflexus, pre-emergence, 240 h; for pest or weed control at 125 g/ha: 125 g ai/ha; for pest or weed control at 500 g/ha: 500 g ai/ha
[5] = system: ragweed (common ragweed, Ambrosia elatior); settings: Ambrosia artemisiifolia, pre-emergence, 240 h; for pest or weed control at 125 g/ha: 125 g ai/ha; for pest or weed control at 500 g/ha: 500 g ai/ha
Method in brief: as §1

[6] = preemergence, visual rating after approx. 10 d, 0 to 100 scale where 0 is no effect and 100 is complete control, read-out: Plant response rating, Barnyardgrass
[7] = preemergence, visual rating after approx. 10 d, 0 to 100 scale where 0 is no effect and 100 is complete control, read-out: Plant response rating, Ryegrass, Italian
[8] = preemergence, visual rating after approx. 10 d, 0 to 100 scale where 0 is no effect and 100 is complete control, read-out: Plant response rating, Foxtail, Giant
[9] = preemergence, visual rating after approx. 10 d, 0 to 100 scale where 0 is no effect and 100 is complete control, read-out: Plant response rating, Pigweed
[10] = preemergence, visual rating after approx. 10 d, 0 to 100 scale where 0 is no effect and 100 is complete control, read-out: Plant response rating, Ragweed
[11] = preemergence, 0 to 100 scale where 0 is no effect and 100 is complete control, read-out: Barnyardgrass plant response rating
[12] = Preemergence, 0 to 100 scale (0 no effect, 100 complete control), read-out: Plant response rating, Barnyardgrass
[13] = Preemergence, 0 to 100 scale (0 no effect, 100 complete control), read-out: Plant response rating, Ryegrass, Italian
[14] = preemergence, 0 to 100 scale where 0 is no effect and 100 is complete control, read-out: Foxtail, Giant plant response rating
[15] = Preemergence, 0 to 100 scale (0 no effect, 100 complete control), read-out: Plant response rating, Foxtail, Giant
[16] = preemergence, 0 to 100 scale where 0 is no effect and 100 is complete control, read-out: Pigweed plant response rating
[17] = Preemergence, 0 to 100 scale (0 no effect, 100 complete control), read-out: Plant response rating, Pigweed
[18] = preemergence, 0 to 100 scale where 0 is no effect and 100 is complete control, read-out: Ragweed plant response rating
[19] = Preemergence, 0 to 100 scale (0 no effect, 100 complete control), read-out: Plant response rating, Ragweed

CC(F)(F)c1cccc([C@H]2CNC(=O)[C@@H]2C(=O)Nc2ccccc2F)c1 [Compound 782]
pest or weed control at 125 g/ha [1, 6]: 80% | pest or weed control at 500 g/ha ([1]; Preemergence, visual injury vs untreated controls after approximately 10 d, read-out: Barnyardgrass plant response rating (0 to 100 scale where 0 is no effect and 100 is complete control)): 90% | pest or weed control at 125 g/ha [2, 7]: 40% | pest or weed control at 500 g/ha ([2]; Preemergence, visual injury vs untreated controls after approximately 10 d, read-out: Ryegrass, Italian plant response rating (0 to 100 scale where 0 is no effect and 100 is complete control)): 60% | pest or weed control at 125 g/ha [3, 8]: 90% | pest or weed control at 500 g/ha ([3]; Preemergence, visual injury vs untreated controls after approximately 10 d, read-out: Foxtail, Giant plant response rating (0 to 100 scale where 0 is no effect and 100 is complete control)): 100% | pest or weed control at 125 g/ha [4, 9]: 0% | pest or weed control at 500 g/ha ([4]; Preemergence, visual injury vs untreated controls after approximately 10 d, read-out: Pigweed plant response rating (0 to 100 scale where 0 is no effect and 100 is complete control)): 50% | pest or weed control at 125 g/ha [5, 10]: 0% | pest or weed control at 500 g/ha ([5]; Preemergence, visual injury vs untreated controls after approximately 10 d, read-out: Ragweed plant response rating (0 to 100 scale where 0 is no effect and 100 is complete control)): 20%

C=CCN1C[C@H](c2ccc(OC)c(F)c2)[C@@H](C(=O)Nc2ccccc2C(F)(F)F)C1=O [Compound 723]
pest or weed control at 125 g/ha [1, 6]: 0% | pest or weed control at 500 g/ha ([1]; preemergence, 0 to 100 scale, 0 = no effect, 100 = complete control, read-out: Plant response rating, Barnyardgrass): 0% | pest or weed control at 125 g/ha [2, 7]: 0% | pest or weed control at 500 g/ha ([2]; preemergence, 0 to 100 scale, 0 = no effect, 100 = complete control, read-out: Plant response rating, Ryegrass, Italian): 0% | pest or weed control at 125 g/ha [3, 8]: 0% | pest or weed control at 500 g/ha ([3]; preemergence, 0 to 100 scale, 0 = no effect, 100 = complete control, read-out: Plant response rating, Foxtail, Giant): 50% | pest or weed control at 125 g/ha [4, 9]: 0% | pest or weed control at 500 g/ha ([4]; preemergence, 0 to 100 scale, 0 = no effect, 100 = complete control, read-out: Plant response rating, Pigweed): 0% | pest or weed control at 125 g/ha [5, 10]: 0% | pest or weed control at 500 g/ha ([5]; preemergence, 0 to 100 scale, 0 = no effect, 100 = complete control, read-out: Plant response rating, Ragweed): 0%

CN1C[C@H](c2ccc3c(c2)CCO3)[C@@H](C(=O)Nc2ccccc2F)C1=O [Compound 1321]
pest or weed control at 500 g/ha [1, 11]: 100% | pest or weed control at 125 g/ha [1, 12]: 90% | pest or weed control at 125 g/ha [2, 13]: 0% | pest or weed control at 500 g/ha [3, 14]: 100% | pest or weed control at 125 g/ha [3, 15]: 90% | pest or weed control at 500 g/ha [4, 16]: 0% | pest or weed control at 125 g/ha [4, 17]: 0% | pest or weed control at 500 g/ha [5, 18]: 50% | pest or weed control at 125 g/ha [5, 19]: 50%

CN1C[C@H](c2cc(F)cc(C(F)(F)F)c2)[C@@H](C(=O)Nc2cccc(Cl)c2F)C1=O [Compound 995]
pest or weed control at 125 g/ha ([1]; Preemergence, visual injury rating after approximately 10 d, read-out: Barnyardgrass plant response rating (0 to 100 scale, 0 is no effect, 100 is complete control)): 80% | pest or weed control at 500 g/ha ([1]; preemergence, visual injury rating about 10 d after treatment, 0 to 100 scale (0 no effect, 100 complete control), read-out: Barnyardgrass plant response rating): 90% | pest or weed control at 125 g/ha ([2]; Preemergence, visual injury rating after approximately 10 d, read-out: Ryegrass, Italian plant response rating (0 to 100 scale, 0 is no effect, 100 is complete control)): 20% | pest or weed control at 500 g/ha ([2]; preemergence, visual injury rating about 10 d after treatment, 0 to 100 scale (0 no effect, 100 complete control), read-out: Ryegrass, Italian plant response rating): 50% | pest or weed control at 125 g/ha ([3]; Preemergence, visual injury rating after approximately 10 d, read-out: Foxtail, Giant plant response rating (0 to 100 scale, 0 is no effect, 100 is complete control)): 90% | pest or weed control at 500 g/ha ([3]; preemergence, visual injury rating about 10 d after treatment, 0 to 100 scale (0 no effect, 100 complete control), read-out: Foxtail, Giant plant response rating): 90% | pest or weed control at 125 g/ha ([4]; Preemergence, visual injury rating after approximately 10 d, read-out: Pigweed plant response rating (0 to 100 scale, 0 is no effect, 100 is complete control)): 20% | pest or weed control at 500 g/ha ([4]; preemergence, visual injury rating about 10 d after treatment, 0 to 100 scale (0 no effect, 100 complete control), read-out: Pigweed plant response rating): 30% | pest or weed control at 125 g/ha ([5]; Preemergence, visual injury rating after approximately 10 d, read-out: Ragweed plant response rating (0 to 100 scale, 0 is no effect, 100 is complete control)): 0% | pest or weed control at 500 g/ha ([5]; preemergence, visual injury rating about 10 d after treatment, 0 to 100 scale (0 no effect, 100 complete control), read-out: Ragweed plant response rating): 20%

CN1C[C@H](c2ccc(C(F)(F)F)cc2)[C@@H](C(=O)Nc2ccccc2C#N)C1=O [Compound 1379]
pest or weed control at 500 g/ha ([1]; preemergence, 0 to 100 scale (0 no effect, 100 complete control), read-out: Plant response rating, Barnyardgrass): 100% | pest or weed control at 125 g/ha [1, 12]: 100% | pest or weed control at 500 g/ha ([2]; preemergence, 0 to 100 scale (0 no effect, 100 complete control), read-out: Plant response rating, Ryegrass, Italian): 50% | pest or weed control at 125 g/ha [2, 13]: 20% | pest or weed control at 500 g/ha ([3]; preemergence, 0 to 100 scale (0 no effect, 100 complete control), read-out: Plant response rating, Foxtail, Giant): 100% | pest or weed control at 125 g/ha [3, 15]: 100% | pest or weed control at 500 g/ha ([4]; preemergence, 0 to 100 scale (0 no effect, 100 complete control), read-out: Plant response rating, Pigweed): 90% | pest or weed control at 125 g/ha [4, 17]: 80% | pest or weed control at 500 g/ha ([5]; preemergence, 0 to 100 scale (0 no effect, 100 complete control), read-out: Plant response rating, Ragweed): 90% | pest or weed control at 125 g/ha [5, 19]: 70%

Cc1cccc([C@H]2CN(C)C(=O)[C@@H]2C(=O)Nc2ccc(F)c(F)c2F)c1 [Compound 1231]
pest or weed control at 125 g/ha ([1]; preemergence, visual injury rating, 0 to 100 scale where 0 is no effect and 100 is complete control, approximately 10 d, read-out: Barnyardgrass plant response rating): 90% | pest or weed control at 500 g/ha [1, 11]: 90% | pest or weed control at 125 g/ha ([2]; preemergence, visual injury rating, 0 to 100 scale where 0 is no effect and 100 is complete control, approximately 10 d, read-out: Ryegrass, Italian plant response rating): 40% | pest or weed control at 500 g/ha ([2]; preemergence, 0 to 100 scale where 0 is no effect and 100 is complete control, read-out: Ryegrass, Italian plant response rating): 90% | pest or weed control at 125 g/ha ([3]; preemergence, visual injury rating, 0 to 100 scale where 0 is no effect and 100 is complete control, approximately 10 d, read-out: Foxtail, Giant plant response rating): 90% | pest or weed control at 500 g/ha [3, 14]: 90% | pest or weed control at 125 g/ha ([4]; preemergence, visual injury rating, 0 to 100 scale where 0 is no effect and 100 is complete control, approximately 10 d, read-out: Pigweed plant response rating): 40% | pest or weed control at 500 g/ha [4, 16]: 70% | pest or weed control at 125 g/ha ([5]; preemergence, visual injury rating, 0 to 100 scale where 0 is no effect and 100 is complete control, approximately 10 d, read-out: Ragweed plant response rating): 30% | pest or weed control at 500 g/ha [5, 18]: 60%
